From patent US8338431B2, “Phosphodiesterase inhibitors” (Leo Pharma A/S, priority 2007, dated 2012)
Read-outs that look alike come from different tables or passages of the source.

How the values were obtained:
[1] = target: Human recombinant PDE4 (Genbank accession no NM—006203) (Homo sapiens, UniProt Q08499); assay: PDE4 Assay (SPA, cleavage of cAMP); type: biochemical
Procedure: Human recombinant PDE4 (Genbank accession no NM_006203) was incubated for 1 hour, with the test compound at concentrations up to 10 μM, with cAMP (1×10^-5M), and with a low amount (0.021 MBq) of radioactively labelled cAMP. At the end of the incubation, the cleavage of the substrate was evaluated by the binding of the AMP product to SPA beads, which generate […] when bound to the radioactive tracer. The AMP product inhibited the binding of the radioactive tracer to the beads, and the luminescent signal was competed. The results were calculated as the molar concentrations resulting in 50% inhibition of the substrate cleavage compared to controls samples, and are expressed as IC50 (M).

[2] = system: TNF-α release from human peripheral blood mononuclear cells (PBMC); assay: TNF-α Release in LPS stimulated PBMC; type: cell-based; settings: 30 minutes pre-incubation, stimulated 18 hours with lipopolysaccharide, TNF-α in supernatant by enzyme immunoassay
Procedure: Human peripheral blood mononuclear cells (PBMC) were isolated from buffy coats. The blood is mixed with saline at a ratio of 1:1, and the PBMC were isolated using Lymphoprep Tubes™ (Nycomed, Norway). The PBMC were suspended in RPMI1640 with 2% foetal calf serum (FCS), pen/strep and 2 mM L-glutamine at a concentration of […]. The cells were pre-incubated for 30 minutes with the test compounds in 96 well tissue culture plates and stimulated for 18 hours with lipopolysaccharide […] (Sigma). The level of TNF-α was measured in the culture supernatant by enzyme immunoassays using primary and secondary biotinylated antibodies from R&D systems. Results are expressed as IC50 values calculated from inhibition curves using as positive controls the secretion in LPS stimulated wells and as negative controls the secretion in unstimulated cells.

[3] = human recombinant PDE4, 1 hour incubation, cAMP 1×10^-5M, test compound up to 10 μM, read-out: IC50 (PDE4)

Chain of Human recombinant PDE4 (Genbank accession no NM—006203) (Q08499 1-673 isoform Q08499-2): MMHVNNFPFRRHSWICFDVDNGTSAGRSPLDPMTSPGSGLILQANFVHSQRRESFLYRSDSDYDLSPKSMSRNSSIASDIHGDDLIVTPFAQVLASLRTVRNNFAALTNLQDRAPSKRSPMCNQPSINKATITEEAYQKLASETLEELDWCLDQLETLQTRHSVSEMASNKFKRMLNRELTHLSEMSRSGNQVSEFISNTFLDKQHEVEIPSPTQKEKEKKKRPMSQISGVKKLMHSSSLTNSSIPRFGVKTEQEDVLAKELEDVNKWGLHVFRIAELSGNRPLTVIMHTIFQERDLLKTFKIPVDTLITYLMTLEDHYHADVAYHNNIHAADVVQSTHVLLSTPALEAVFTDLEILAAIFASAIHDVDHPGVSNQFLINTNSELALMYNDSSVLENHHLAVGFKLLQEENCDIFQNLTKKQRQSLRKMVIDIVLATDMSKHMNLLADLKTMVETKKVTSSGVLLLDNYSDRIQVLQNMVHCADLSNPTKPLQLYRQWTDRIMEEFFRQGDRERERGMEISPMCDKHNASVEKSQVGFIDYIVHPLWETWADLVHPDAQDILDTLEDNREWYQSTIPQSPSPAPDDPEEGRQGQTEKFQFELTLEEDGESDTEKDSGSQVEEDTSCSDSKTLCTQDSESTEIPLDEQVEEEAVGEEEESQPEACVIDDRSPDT

SMILES: COc1ccc(C(=O)Cc2c(Cl)cncc2Cl)c2c1OCC1(CO2)CSCSC1 [Compound 132, 2-(3,5-Dichloropyridin-4-yl)-1-{9-methoxy-spiro[2H-1,5-benzodioxepin-3(4H),5′-[1,3]dithiane]-6-yl}ethanone]
- IC50 [1, 3]: 26 nM
- IC50 [2]: 29 nM

SMILES: COc1ccc(C(=O)Cc2c(Cl)cncc2Cl)c2c1OC1(CCN(C(C)=O)CC1)O2 [Compound 108, 2-(3,5-Dichloropyridine-4-yl)-1-(7-methoxy-1′-acetyl-spiro[1,3-benzodioxole-2,4′-piperidine]-4-yl)ethanone]
- IC50 [1]: 220 nM
- IC50 [2]: 167 nM

SMILES: COc1ccc(C(=O)Cc2nccnc2Br)c2c1OC1(CCSCC1)O2 [Compound 115]
- IC50 [1, 3]: 1410 nM
- IC50 [2]: 471 nM

SMILES: COc1ccc(C(=O)Cc2cnccn2)c2c1OC1(CCSCC1)O2 [Compound 116, 2-(-pyrazin-2-yl)-1-(7-methoxy-2′,3′,5′,6′-tetrahydro-spiro[1,3-benzodioxole-2,4′-(4H)-thiopyran]-4-yl)ethanone]
- IC50 [1, 3]: 1290 nM
- IC50 [2]: 2940 nM

SMILES: COc1ccc(C(=O)Nc2c(Cl)cncc2Cl)c2c1OC1(CCOCC1)O2 [Compound 102, N-(3,5-Dichloropyridine-4-yl)-7-methoxy-2′,3′,5′,6′-tetrahydro-spiro[1,3-benzodioxole-2,4′-(4H)-pyran]-4-carboxamide]
- IC50 [1, 3]: 41 nM
- IC50 [2]: 88 nM

SMILES: COc1ccc(C(=O)Cc2c(Cl)c[n+]([O-])cc2Cl)c2c1OCC1(COC1)CO2 [Compound 122, 2-(3,5-Dichloro-1-oxido-pyridin-4-yl)-1-{9-methoxy-spiro[2H-1,5-benzodioxepin-3(4H),3′-oxetane]-6-yl}ethanone]
- IC50 [1, 3]: 50 nM
- IC50 [2]: 20 nM

SMILES: COc1ccc(C(=O)Cc2c(Cl)cncc2Cl)c2c1OCC1(CO2)OCCO1 [Compound 126, 2-(3,5-Dichloropyridin-4-yl)-1-{9-methoxy-spiro[2H-1,5-benzodioxepin-3(4H),2′-(1,3-dioxolane)]-6-yl}ethanone]
- IC50 [1, 3]: 67 nM
- IC50 [2]: 111 nM

SMILES: COc1ccc(C(=O)Cc2c(Cl)cncc2Cl)c2c1OCC1(CO2)CSC1 [Compound 123, 2-(3,5-Dichloropyridin-4-yl)-1-{9-methoxy-spiro[2H-1,5-benzodioxepin-3(4H),3′-thietane]-6-yl}ethanone]
- IC50 [1, 3]: 17 nM
- IC50 [2]: 35 nM

SMILES: COc1ccc(C(=O)Cc2c(Cl)cncc2Cl)c2c1OC1(CCN(S(C)(=O)=O)CC1)O2 [Compound 107, 2-(3,5-Dichloropyridine-4-yl)-1-(7-methoxy-1′-[methylsulfonyl]-spiro[1,3-benzodioxole-2,4′-piperidine]-4-yl)ethanone]
- IC50 [1, 3]: 590 nM
- IC50 [2]: 910 nM

SMILES: COc1ccc(C(=O)Cc2c(Cl)cncc2Cl)c2c1OC1(CCSCC1)O2 [Compound 110, 2-(3,5-Dichloropyridine-4-yl)-1-(7-methoxy-2′,3′,5′,6′-tetrahydro-spiro[1,3-benzodioxole-2,4′-(4H)-thiopyran]-4-yl)ethanone]
- IC50 [1, 3]: 11 nM
- IC50 [2]: 17 nM

SMILES: COc1ccc(C(=O)Cc2c(Cl)cncc2Cl)c2c1OC1(CCS(=O)(=O)CC1)O2 [Compound 112, 2-(3,5-Dichloropyridine-4-yl)-1-(7-methoxy-2′,3′,5′,6′-tetrahydro-spiro[1,3-benzodioxole-2,4′-(4H)-thiopyran-1,1′-dioxide]-4-yl)ethanone]
- IC50 [1, 3]: 29 nM
- IC50 [2]: 34 nM

SMILES: COc1ccc(C(=O)Cc2c(Cl)c[n+]([O-])cc2Cl)c2c1OC1(CCS(=O)(=O)CC1)O2 [Compound 113, 2-(3,5-Dichloro-1-oxido-pyridine-4-yl)-1-(7-methoxy-2′,3′,5′,6′-tetrahydro-spiro[1,3-benzodioxole-2,4′-(4H)-thiopyran-1′,1′-dioxide]-4-yl)ethanone]
- IC50 [1, 3]: 53 nM
- IC50 [2]: 82 nM

SMILES: COc1ccc(C(=O)Cc2ccncc2Br)c2c1OC1(CCSCC1)O2 [Compound 114, 2-(3-bromopyridine-4-yl)-1-(7-methoxy-2′,3′,5′,6′-tetrahydro-spiro[1,3-benzodioxole-2,4′-(4H)-thiopyran]-4-yl)ethanone]
- IC50 [1, 3]: 45 nM
- IC50 [2]: 95 nM

SMILES: COc1ccc(C(=O)Cc2ccnc3ccccc23)c2c1OC1(CCSCC1)O2 [Compound 118, 2-(quinolin-4-yl-)-1-(7-methoxy-2′,3′,5′,6′-tetrahydro-spiro[1,3-benzo-dioxole-2,4′-(4H)-thiopyran]-4-yl)ethanone]
- IC50 [1, 3]: 1800 nM
- IC50 [2]: 5520 nM

SMILES: COc1ccc(C(=O)Cc2c(Cl)cncc2Cl)c2c1OCC1(COC1)CO2 [Compound 121, 2-(3,5-Dichloropyridin-4-yl)-1-{9-methoxy-spiro[2H-1,5-benzodioxepin-3(4H),3′-oxetane]-6-yl}ethanone]
- IC50 [1, 3]: 52 nM
- IC50 [2]: 64 nM

SMILES: COc1ccc(C(=O)Cc2c(Cl)cncc2Cl)c2c1OCC1(CCOCC1)CO2 [Compound 127, 2-(3,5-Dichloropyridin-4-yl)-1-{9-methoxy-spiro[2H-1,5-benzodioxepin-3(4H),4′-tetrahydropyran]-6-yl}ethanone]
- IC50 [1, 3]: 22 nM
- IC50 [2]: 27 nM

SMILES: COc1ccc(C(=O)Cc2c(Cl)c[n+]([O-])cc2Cl)c2c1OCC1(CO2)CS(=O)(=O)C1 [Compound 125, 2-(3,5-Dichloropyridin-1-oxido-4-yl)-1-{9-methoxy-spiro[2H-1,5-benzodioxepin-3(4H),3′-thietane-1′,1′-dioxide]-6-yl}ethanone]
- IC50 [1, 3]: 200 nM
- IC50 [2]: 135 nM

SMILES: COc1ccc(C(=O)Cc2c(Cl)c[n+]([O-])cc2Cl)c2c1OC1(CCOCC1)O2 [Compound 103, 2-(3,5-Dichloro-1-oxido-pyridine-4-yl)-1-(7-methoxy-2′,5′,6′-tetrahydro-spiro[1,3-benzodioxole-2,4′-(4H)-pyran]-4-yl)ethanone]
- IC50 [1, 3]: 26 nM
- IC50 [2]: 23 nM
